Reference: patent US5124315A, “Liquid pharmaceutical composition for nasal administration containing a polypeptide as active ingredient” (Phideatech S.R.L., priority 1991, dated 1992)

Settings: liquid nasal compositions, common storage conditions
Source text: The present inventors have accordingly conducted extensive researches for finding a suitable stabilizing agent.

## N.N.O=C(O)C(O)C(O)C(=O)O (stereo not shown) [ammonium tartrate]
  stabilizing activity on liquid compositions containing polypeptides: satisfactory stabilizing agent
